± gives the standard deviation of the averaged measurements.
Legend:
VORINOSTAT = compound: O=C(CCCCCCC(=O)Nc1ccccc1)NO [VORINOSTAT]; assay: surviving fraction relative to DMSO-only wells; higher = less growth inhibition; conditions: exposure time: 5 days
Outline: (§1)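 Viability values are CellTiter-Glo luminescence readings, given as surviving fraction against the median of DMSO-only wells. The readings were taken after 10 minutes at room temperature, following five days of continuous exposure to inhibitors at 0.5, 1, 5, 10, 50, 100, 500 and 1000 nM that began 24 hours after log-phase tumour cell lines were seeded at 250–500 cells per well in 384-well plates. Every line was screened three times and kept only if replicate Pearson r >0.7 and median Z' >0.3.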

[1] = compound: COc1ccc(-c2cc3c(C)nc(N)nc3n([C@H]3CC[C@H](OCCO)CC3)c2=O)cn1; assay: as above; conditions: exposure time: 5 days
Outline: as §1

Row | Test System | surviving fraction (VORINOSTAT; 0.5 nM) | surviving fraction (VORINOSTAT; 1 nM) | surviving fraction (VORINOSTAT; 5 nM) | surviving fraction (VORINOSTAT; 10 nM) | surviving fraction (VORINOSTAT; 50 nM) | surviving fraction (VORINOSTAT; 100 nM) | surviving fraction (VORINOSTAT; 500 nM) | surviving fraction (VORINOSTAT; 1000 nM) | surviving fraction ([1]; 0.5 nM) | surviving fraction ([1]; 1 nM) | surviving fraction ([1]; 5 nM) | surviving fraction ([1]; 10 nM) | surviving fraction ([1]; 50 nM) | surviving fraction ([1]; 100 nM) | surviving fraction ([1]; 500 nM) | surviving fraction ([1]; 1000 nM)
1 | S68 BREAST | 0.723 ± 0.22 | 0.82 ± 0.18 | 0.91 ± 0.38 | 0.998 ± 0.21 | 1.22 ± 0.28 | 1.07 ± 0.17 | 0.73 ± 0.19 | 0.384 ± 0.018 | 0.953 ± 0.24 | 0.88 ± 0.11 | 0.993 ± 0.2 | 0.845 ± 0.18 | 0.334 ± 0.082 | 0.16 ± 0.02 | 0.0503 ± 0.0051 | 0.034 ± 0.001
2 | HCC78 LUNG | 1.01 ± 0.12 | 0.818 ± 0.22 | 0.852 ± 0.12 | 1 ± 0.091 | 0.947 ± 0.22 | 1.06 ± 0.019 | 0.326 ± 0.042 | 0.0463 ± 0.011 | 0.928 ± 0.31 | 0.845 ± 0.15 | 0.653 ± 0.27 | 0.588 ± 0.17 | 0.28 ± 0.048 | 0.104 ± 0.0093 | 0.022 ± 0.0044 | 0.0197 ± 0.0023
3 | CASKI CERVIX | 0.88 ± 0.024 | 0.942 ± 0.062 | 0.957 ± 0.013 | 0.903 ± 0.029 | 0.971 ± 0.046 | 0.955 ± 0.034 | 0.496 ± 0.02 | 0.448 ± 0.027 | 0.91 ± 0.034 | 0.901 ± 0.034 | 0.779 ± 0.05 | 0.922 ± 0.031 | 0.426 ± 0.022 | 0.147 ± 0.009 | 0.0347 ± 0.0047 | 0.338 ± 0.52
4 | CADOES1 SOFT TISSUE | 0.968 ± 0.063 | 0.916 ± 0.028 | 0.865 ± 0.096 | 0.824 ± 0.057 | 0.71 ± 0.23 | 0.397 ± 0.23 | 0.242 ± 0.057 | 0.0883 ± 0.016 | 0.956 ± 0.11 | 0.921 ± 0.061 | 0.911 ± 0.058 | 0.781 ± 0.045 | 0.633 ± 0.11 | 0.49 ± 0.025 | 0.193 ± 0.033 | 0.12 ± 0.0096
5 | LNCAP PROSTATE | 1.11 ± 0.14 | 0.952 ± 0.22 | 0.842 ± 0.19 | 0.861 ± 0.053 | 0.904 ± 0.15 | 0.784 ± 0.042 | 0.361 ± 0.055 | 0.159 ± 0.016 | 0.877 ± 0.095 | 0.872 ± 0.045 | 0.759 ± 0.026 | 0.622 ± 0.041 | 0.226 ± 0.024 | 0.099 ± 0.012 | 0.0437 ± 0.0051 | 0.035 ± 0.0044
6 | HCC1806 BREAST | 1.13 ± 0.16 | 0.721 ± 0.61 | 0.825 ± 0.54 | 0.77 ± 0.64 | 1.18 ± 0.051 | 1.24 ± 0.16 | 0.852 ± 0.073 | 0.527 ± 0.089 | 1.08 ± 0.14 | 1.1 ± 0.042 | 1.12 ± 0.18 | 1.05 ± 0.094 | 0.993 ± 0.059 | 0.754 ± 0.1 | 0.366 ± 0.037 | 0.215 ± 0.0097
7 | MDAMB468 BREAST | 0.891 ± 0.052 | 0.951 ± 0.03 | 1 ± 0.044 | 0.978 ± 0.023 | 1.12 ± 0.061 | 1.133 ± 0.007 | 0.818 ± 0.036 | 0.469 ± 0.007 | 0.971 ± 0.045 | 0.965 ± 0.12 | 0.989 ± 0.024 | 1 ± 0.078 | 0.857 ± 0.019 | 0.733 ± 0.021 | 0.255 ± 0.019 | 0.0787 ± 0.0084
8 | JURKAT HAEMATOPOIETIC AND LYMPHOID TISSUE | 1.1 ± 0.026 | 1.105 ± 0.01 | 1.09 ± 0.032 | 1.05 ± 0.02 | 1.04 ± 0.013 | 1.01 ± 0.023 | 0.696 ± 0.037 | 0.039 ± 0.001 | 1.07 ± 0.026 | 1.09 ± 0.024 | 1.04 ± 0.021 | 1 ± 0.022 | 0.741 ± 0.017 | 0.57 ± 0.013 | 0.213 ± 0.011 | 0.135 ± 0.0042
9 | KPD BONE | 0.943 ± 0.058 | 0.981 ± 0.032 | 1.09 ± 0.068 | 1.02 ± 0.067 | 1.07 ± 0.074 | 0.994 ± 0.083 | 0.907 ± 0.048 | 0.65 ± 0.021 | 0.973 ± 0.033 | 0.95 ± 0.056 | 0.908 ± 0.032 | 0.852 ± 0.032 | 0.486 ± 0.028 | 0.313 ± 0.019 | 0.0613 ± 0.0067 | 0.038 ± 0.0046
10 | MHM BONE | 0.928 ± 0.025 | 0.9847 ± 0.0087 | 1.01 ± 0.028 | 0.981 ± 0.019 | 1.03 ± 0.011 | 1 ± 0.019 | 0.985 ± 0.013 | 0.843 ± 0.025 | 0.999 ± 0.011 | 0.967 ± 0.013 | 0.99 ± 0.012 | 0.957 ± 0.018 | 0.888 ± 0.029 | 0.823 ± 0.013 | 0.478 ± 0.015 | 0.29 ± 0.0046
11 | A549 LUNG | 0.961 ± 0.026 | 0.9313 ± 0.009 | 0.923 ± 0.062 | 0.919 ± 0.042 | 1.04 ± 0.019 | 1.02 ± 0.061 | 1.18 ± 0.027 | 1.116 ± 0.006 | 0.958 ± 0.049 | 0.939 ± 0.044 | 0.927 ± 0.026 | 0.936 ± 0.035 | 1.02 ± 0.032 | 0.886 ± 0.016 | 0.325 ± 0.024 | 0.158 ± 0.0036
12 | SUM44 BREAST | 0.934 ± 0.025 | 0.954 ± 0.037 | 0.951 ± 0.0099 | 1.01 ± 0.086 | 1.07 ± 0.016 | 0.917 ± 0.038 | 0.418 ± 0.031 | 0.294 ± 0.013 | 0.914 ± 0.026 | 0.974 ± 0.044 | 1.01 ± 0.027 | 0.957 ± 0.04 | 0.864 ± 0.043 | 0.747 ± 0.017 | 0.225 ± 0.028 | 0.151 ± 0.0051
13 | COLO320DM LARGE INTESTINE | 1.1 ± 0.13 | 1.18 ± 0.15 | 1.12 ± 0.086 | 1.04 ± 0.049 | 1.22 ± 0.17 | 1.07 ± 0.14 | 0.577 ± 0.041 | 0.177 ± 0.0091 | 1.07 ± 0.051 | 1.08 ± 0.08 | 0.994 ± 0.05 | 0.906 ± 0.029 | 0.5533 ± 0.0034 | 0.383 ± 0.037 | 0.215 ± 0.0076 | 0.18 ± 0.0044
14 | HU09 BONE | 0.943 ± 0.054 | 0.922 ± 0.041 | 0.931 ± 0.095 | 0.969 ± 0.053 | 1.01 ± 0.092 | 0.968 ± 0.13 | 0.721 ± 0.072 | 0.4 ± 0.013 | 0.936 ± 0.058 | 0.941 ± 0.057 | 0.779 ± 0.044 | 0.793 ± 0.078 | 0.346 ± 0.042 | 0.168 ± 0.015 | 0.0383 ± 0.0015 | 0.0237 ± 0.0015
15 | SUM149 BREAST | 1.1 ± 0.12 | 1.03 ± 0.044 | 1.08 ± 0.047 | 0.917 ± 0.038 | 1.06 ± 0.045 | 1.14 ± 0.016 | 0.996 ± 0.066 | 0.71 ± 0.031 | 1.02 ± 0.042 | 1.1 ± 0.1 | 0.963 ± 0.067 | 0.9127 ± 0.0085 | 0.697 ± 0.036 | 0.474 ± 0.03 | 0.161 ± 0.0021 | 0.0763 ± 0.0038
16 | VCAP PROSTATE | 1.09 ± 0.082 | 1.12 ± 0.054 | 1.15 ± 0.015 | 1.17 ± 0.11 | 1.16 ± 0.11 | 0.994 ± 0.022 | 0.449 ± 0.017 | 0.261 ± 0.04 | 1.01 ± 0.05 | 1.08 ± 0.04 | 1.06 ± 0.14 | 0.983 ± 0.056 | 0.706 ± 0.027 | 0.52 ± 0.023 | 0.161 ± 0.013 | 0.0997 ± 0.016
